Source: patent US8987273B2, “Substituted imidazo[1,2-B]pyridazines” (Bayer Intellectual Property GmbH, priority 2010, dated 2015)

Assays:
[1] = target: His-tagged human recombinant kinase full-length Akt1 (Homo sapiens (Human), UniProt P31749); test: Akt1 kinase assay (TR-FRET); type: biochemical; conditions: 10 μM ATP; median
Text: Akt1 inhibitory activity of compounds of the present invention was quantified employing the Akt1 TR-FRET assay as described in the following paragraphs. His-tagged human recombinant kinase full-length Akt1 expressed in insect cells was purchased form Invitrogen (part number PV 3599). As substrate for the kinase reaction the biotinylated peptide biotin-Ahx-[…] (C-terminus in amide form) was used which can be purchased e.g. from the company Biosynthan GmbH (Berlin-Buch, Germany).
(§1) For the assay 50 nl of a 100 fold concentrated solution of the test compound in DMSO was pipetted into a black low volume 384 well microtiter plate (Greiner Bio-One, Frickenhausen, Germany), 2 μl of a solution of Akt1 in assay buffer [50 mM TRIS/HCl pH 7.5, 5 mM MgCl2, 1 mM dithiothreitol, 0.02% (v/v) Triton X-100 (Sigma)] were added and the mixture was incubated for 15 min at 22° C. to allow pre-binding of the test compounds to the enzyme before the start of the kinase reaction. Then the kinase reaction was started by the addition of 3 μl of a solution of adenosine-tri-phosphate (ATP, 16.7 μM=>final conc. in the 5 μl assay volume is 10 μM) and substrate (1.67 μM=>final conc. in the 5 μl assay volume is 1 μM) in assay buffer and the resulting mixture was incubated for a reaction time of 60 min at 22° C. The concentration of Akt1 in the assay was adjusted depending of the activity of the enzyme lot and was chosen appropriate to have the assay in the linear range, typical enzyme concentrations were in the range of about 0.05 ng/μl (final conc. in the 5 μl assay volume).
(§2) The reaction was stopped by the addition of 5 μl of a solution of HTRF detection reagents (200 nM streptavidine-XL665 [Cisbio] and 1.5 nM anti-phosho-Serine antibody [Millipore, cat. #35-001] and 0.75 nM LANCE Eu-W 1024 labeled anti-mouse IgG antibody [Perkin Elmer]) in an aqueous EDTA-solution (100 mM EDTA, 0.1% (w/v) bovine serum albumin in 50 mM HEPES/NaOH pH 7.5).
(§3) The resulting mixture was incubated 1 h at 22° C. to allow the binding of the biotinylated phosphorylated peptide to the streptavidine-XL665 and the antibodies. Subsequently the amount of phosphorylated substrate was evaluated by measurement of the resonance energy transfer from the anti-mouse-IgG-Eu-Chelate to the streptavidine-XL665. Therefore, the fluorescence emissions at 620 nm and 665 nm after excitation at 350 nm was measured in a HTRF reader, e.g. a Rubystar (BMG Labtechnologies, Offenburg, Germany) or a Viewlux (Perkin-Elmer). The ratio of the emissions at 665 nm and at […] was taken as the measure for the amount of phosphorylated substrate. The data were normalised (enzyme reaction without inhibitor=0% inhibition, all other assay components but no enzyme=100% inhibition).

[2] = target: His-tagged human recombinant kinase full-length Akt2 (Homo sapiens (Human), UniProt P31751); test: Akt2 kinase assay (TR-FRET); type: biochemical; conditions: 10 μM ATP; median
Text: Akt2 inhibitory activity of compounds of the present invention was quantified employing the Akt2 TR-FRET assay as described in the following paragraphs.
His-tagged human recombinant kinase full-length Akt2 expressed in insect cells and activated by PDK1 was purchased form Invitrogen (part number PV 3975). As substrate for the kinase reaction the biotinylated peptide biotin-Ahx-[…] (C-terminus in amide form) was used which can be purchased e.g. from the company Biosynthan GmbH (Berlin-Buch, Germany).
as §1, with “Akt2” for “Akt1”, “0.2” for “0.05”
as §2, with “0.1%/w/v\” for “0.1% (w/v)”
as §3, with “TR-FRET” for “HTRF”

KPL-4 cells = test: Tumor cell proliferation assay (CellTiter-Glo); type: cell-based; conditions: KPL4; 72 h drug exposure
Procedure: Compounds were tested in a cell-based assay that measures the capacity of the compounds to inhibit tumour cell proliferation following a 72 h drug exposure. Cell viability is determined using CellTiter-Glow® (CTG, Promega, cat# G757112/3). The CellTiter-Glo® Luminescent Cell Viability Assay is a homogeneous method to determine the number of viable cells in culture. Detection is based on using the luciferase reaction to measure the amount of ATP from viable cells. The amount of ATP in cells correlates with cell viability. Within minutes after a loss of membrane integrity, cells lose the ability to synthesize ATP, and endogenous ATPases destroy any remaining ATP; thus the levels of ATP fall precipitously.
Cells were plated at 3000-5000 cells/well (depending on the cell lines) in 90 μL growth medium on MTPs (Corning; #3603, black plate, clear flat bottom). For each cell line assayed, cells were plated onto a separate plate for determination of […] at t=0 hour and t=72 hour time points. Following overnight incubation at 37° C., chemiluminescence values for the t=0 samples were determined after adding 10 μl medium and 100 μl CTG solution according to manufacture protocol. Plates for the t=72 hour time points were treated with compounds diluted into growth medium at ten times final concentration added in 10 μL to the cell culture plate. Cells were then incubated for 72 hours at 37° C. Chemiluminescence values for the t=72 hour samples were determined. For data analysis, briefly, data from 24 h plate where used to reflect 100% inhibition of growth (“Ci”) and DMSO control for uninhibited growth (“C0”) and analyzed using MTS software package for IC50 and Hill coefficient. Experiments were controlled using a reference compound as standard.

[3] = test system: phospho-AKT at S473 in KPL4 breast tumour cell line; test: Cellular p-AKT1/2/3-S473 assay; type: cell-based; conditions: KPL4 cells, 2 hours treatment; median; read-out: pAKT-S743 median IC50
Procedure: The molecular mechanism of action was investigated in a set of experiments to assess the inhibition of the PI3K-AKT-mTOR pathway in responsive cell lines such as KPL4 breast tumour cell line (PIK3CAH1047R, HER2O/E and hormone independent). The phospho-substrates of PI3K-AKT-mTOR axis were used as the read-outs to reflect pathway inhibition. Cells were seeded at 60-80% confluency per well in 96-well cell culture plates. After overnight incubation at 37° C. 5% CO2, cells were treated with compounds and vehicle at 37° C. for 2 hours. […] All measurements where at least done in duplicates and confirmed by independent repetition.
Alternatively pAKT-S473 was measured using the “Akt Duplex” of the MULTI-SPOT® Assay System (Fa. Meso Scale Discovery, Cat# N41100B-1) following manufacturers instructions. Each assay used 20 μg of protein extract and measured total AKT and p-AKT content simultaneously in one well. All measurements where at least done in duplicates and confirmed by independent repetition. Values for P-AKT are expressed as percentage of P-AKT level compared to total-AKT content of the extracts.

His-tagged human recombinant kinase full-length Akt2, sequence (P31751 whole entry): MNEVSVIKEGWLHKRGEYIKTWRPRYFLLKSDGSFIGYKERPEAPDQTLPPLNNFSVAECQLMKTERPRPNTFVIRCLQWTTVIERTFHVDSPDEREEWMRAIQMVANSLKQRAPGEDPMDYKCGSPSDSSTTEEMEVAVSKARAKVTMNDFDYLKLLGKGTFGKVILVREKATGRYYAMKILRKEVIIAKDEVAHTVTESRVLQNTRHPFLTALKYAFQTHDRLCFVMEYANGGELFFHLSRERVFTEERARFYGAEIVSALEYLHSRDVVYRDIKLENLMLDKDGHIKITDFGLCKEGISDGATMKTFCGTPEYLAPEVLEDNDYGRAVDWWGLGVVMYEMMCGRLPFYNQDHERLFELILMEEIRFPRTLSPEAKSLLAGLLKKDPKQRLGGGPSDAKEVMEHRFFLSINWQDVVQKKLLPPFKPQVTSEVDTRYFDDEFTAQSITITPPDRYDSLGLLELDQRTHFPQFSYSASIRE
His-tagged human recombinant kinase full-length Akt1, sequence (P31749 whole entry): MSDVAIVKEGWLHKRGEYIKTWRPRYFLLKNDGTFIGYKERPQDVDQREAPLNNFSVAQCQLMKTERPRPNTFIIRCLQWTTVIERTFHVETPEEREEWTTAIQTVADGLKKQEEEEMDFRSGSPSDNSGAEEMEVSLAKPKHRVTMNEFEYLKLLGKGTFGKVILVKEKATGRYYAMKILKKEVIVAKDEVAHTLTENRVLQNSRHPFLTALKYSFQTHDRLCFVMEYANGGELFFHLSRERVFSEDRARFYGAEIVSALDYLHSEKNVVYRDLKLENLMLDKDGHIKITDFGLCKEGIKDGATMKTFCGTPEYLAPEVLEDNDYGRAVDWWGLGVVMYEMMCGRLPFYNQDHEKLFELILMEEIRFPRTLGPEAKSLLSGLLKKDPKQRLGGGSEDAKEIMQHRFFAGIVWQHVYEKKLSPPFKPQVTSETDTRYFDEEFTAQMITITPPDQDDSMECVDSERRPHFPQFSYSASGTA

| Compound | IC50 [1] [nM] | IC50 [2] [nM] | IC50 (KPL-4 cells) [nM] | IC50 [3] [nM] |
| --- | --- | --- | --- | --- |
| C=Cc1c(C)nc2cc(-c3ccccc3)c(-c3ccc(C4(N)CCC4)cc3)nn12 [Example 12-0, 1-[4-(2-Methyl-7-phenyl-3-vinyl-imidazo[1,2-b]pyridazin-6-yl)-phenyl]-cyclobutylamine] | 8940 | 16700 | 3200 | 10000 |
| Cc1cnc2cc(-c3ccccc3)c(-c3ccc(C4(N)CCC4)cc3)nn12 [Example 2-0, 1-[4-(3-Methyl-7-phenyl-imidazo[1,2-b]pyridazin-6-yl)-phenyl]-cyclobutylamine] | 441 | 1730 |  |  |
| COc1cncc(-c2cnc3cc(-c4ccccc4)c(-c4ccc(C5(N)CCC5)cc4)nn23)c1 [Example 4-18, 1-{4-[3-(5-Methoxypyridin-3-yl)-7-phenyl-imidazo[1,2-b]pyridazin-6-yl]-phenyl}-cyclobutylamine] | 5 | 46 | 1810 |  |
| CCc1c(C)nc2cc(-c3ccccc3)c(-c3ccc(C4(N)CCC4)cc3)nn12 [Example 13-0, 1-[4-(3-Ethyl-2-methyl-7-phenyl-imidazo[1,2-b]pyridazin-6-yl)-phenyl]-cyclobutylamine] |  |  | 2470 | 10000 |
| Cc1nc2cc(-c3ccccc3)c(-c3ccc(C4(N)CCC4)cc3)nn2c1-c1cn[nH]c1 [Example 5-2, 1-{4-[2-Methyl-7-phenyl-3-(1H-pyrazol-4-yl)-imidazo[1,2-b]pyridazin-6-yl]-phenyl}-cyclobutylamine] | 4780 |  | 2750 | 10000 |
| NC1(c2ccc(-c3nn4ccnc4cc3-c3ccccc3)cc2)CCC1 [Example 1-0, 1-[4-(7-Phenyl-imidazo[1,2-b]pyridazin-6-yl)-phenyl]-cyclobutylamine] | 246 | 1440 | 3540 |  |

Other lines, results leading:

| IC50 [1] [nM] | IC50 [2] [nM] | IC50 (KPL-4 cells) [nM] | IC50 [3] [nM] | Compound |
| --- | --- | --- | --- | --- |
| 11 | 22 | 5170 |  | NC1(c2ccc(-c3nn4c(-c5ccc6cn[nH]c6c5)cnc4cc3-c3ccccc3)cc2)CCC1 [Example 4-16, 1-{4-[3-(1H-indazol-6-yl)-7-phenyl-imidazo[1,2-b]pyridazin-6-yl]-phenyl}-cyclobutylamine] |
| 129 | 136 | 2030 |  | N#Cc1ccc(-c2cnc3cc(-c4ccccc4)c(-c4ccc(C5(N)CCC5)cc4)nn23)cc1 [Example 4-1, 4-{6-[4-(1-Amino-cyclobutyl)-phenyl]-7-phenyl-imidazo[1,2-b]pyridazin-3-yl}-benzonitrile] |
| 36 | 81 | 1910 |  | NC1(c2ccc(-c3nn4c(-c5ccc(F)cc5)cnc4cc3-c3ccccc3)cc2)CCC1 [Example 4-3, 1-{4-[3-(4-Fluorophenyl)-7-phenyl-imidazo[1,2-b]pyridazin-6-yl]-phenyl}-cyclobutylamine] |
| 44 | 277 | 6000 |  | Cc1ccc(-c2cnc3cc(-c4ccccc4)c(-c4ccc(C5(N)CCC5)cc4)nn23)cc1 [Example 4-4, 1-[4-(7-Phenyl-3-p-tolyl-imidazo[1,2-b]pyridazin-6-yl)-phenyl]-cyclobutylamine] |
| 4 | 58 | 2560 |  | COC(=O)c1cccc(-c2cnc3cc(-c4ccccc4)c(-c4ccc(C5(N)CCC5)cc4)nn23)c1 [Example 4-2, 3-{6-[4-(1-Amino-cyclobutyl)-phenyl]-7-phenyl-imidazo[1,2-b]pyridazin-3-yl}-benzoic acid methyl ester] |
| 110 | 278 | 1850 |  | CS(=O)(=O)c1ccc(-c2cnc3cc(-c4ccccc4)c(-c4ccc(C5(N)CCC5)cc4)nn23)cc1 [Example 4-0, 1-{4-[3-(4-Methanesulfonylphenyl)-7-phenyl-imidazo[1,2-b]pyridazin-6-yl]-phenyl}-cyclobutylamine] |
| 11 | 70 | 1400 |  | NC1(c2ccc(-c3nn4c(-c5ccn[nH]5)cnc4cc3-c3ccccc3)cc2)CCC1 [Example 4-15, 1-{4-[7-Phenyl-3-(2H-pyrazol-3-yl)-imidazo[1,2-b]pyridazin-6-yl]-phenyl}-cyclobutylamine] |
